Experimental data published in patent publication US20150133512A1, “N-ARYLTRIAZOLE COMPOUNDS AS LPAR ANTAGONISTS” (Hoffmann-La Roche Inc,, priority 2012, published 2015).

Columns and labels:
[1] = biological target: human recombinant LPA1 Lysophospholipid receptor (Homo sapiens, UniProt Q92633); assay: Calcium flux assay using FLIPR, LPA1 antagonist activity; format: cell-based; conditions: for IC50: ChemiScreen Calcium-optimized stable cell line, antagonist mode, inhibition of agonist-induced calcium flux
Experimental: (§1) Calcium Flux Assay Using Fluorometric Imaging Plate Reader (FLIPR)
Cell Culture Conditions: The ChemiScreen Calcium-optimized stable cell line containing the human recombinant LPA1 Lysophospholipid receptor was purchased from Chemicon International, Inc./Millipore. The cells were cultured in DMEM-high glucose supplemented with 10% fetal bovine serum, 2 mM glutamine, 100 U/mL penicillin/100 μg/mL streptomycin, 1× non-essential amino acids, 10 mM HEPES and 0.25 mg/mL Geneticin. Cells were harvested with trypsin-EDTA and counted using ViaCount reagent. The cell suspension volume was adjusted to 2.0×10^5 cells/mL with complete growth media. Aliquots of 50 μL were dispensed into 384 well black/clear tissue culture treated plates (BD) and the microplates were placed in a 37° C. incubator overnight. The following day plates were used in the assay.
(§2) Dye Loading and Assay: Loading Buffer (FLIPR Calcium-4, Molecular Devices) was prepared by dissolving the contents of one bottle into 100 mL Hank's Balanced Salt Solution containing 20 mM HEPES and 2.5 mM probenecid. Plates were loaded onto Biotek plate washer and growth media was removed and replaced with 20 μL of Hank's Balanced Salt Solution containing 20 mM HEPES and 2.5 mM probenecid, followed by 25 μL of Loading Buffer. The plates were then incubated for 30 minutes at 37° C.
During the incubation, test compounds were prepared by adding 90 μL of HBSS/20 mM HEPES/0.1% BSA buffer to 2 μL of serially diluted compounds. To prepare serial dilutions, 10 mM stocks of compounds were prepared in 100% DMSO.
After incubation, both the cell and “assay” plates were brought to the FLIPR and 20 μL of the diluted compounds were transferred to the cell plates by the FLIPR. Compound addition was monitored by FLIPR to detect any agonist activity of the compounds. Plates were then incubated for 30 minutes at room temperature protected from light. […] During the assay, fluorescence readings were taken simultaneously from all 384 wells of the cell plate every 1.5 seconds. Five readings were taken to establish a stable baseline, then 20 μL of sample was rapidly (30 μL/sec) and simultaneously added to each well of the cell plate. The fluorescence was continuously monitored before, during and after sample addition for a total elapsed time of 100 seconds. Responses (increase in peak fluorescence) in each well following agonist addition was determined. The initial fluorescence reading from each well, prior to ligand stimulation, was used as zero baseline value for the data from that well. The responses were expressed as % inhibition of the buffer control.

LPA3 = biological target: T1, LPA3 (Homo sapiens, UniProt Q9UBY5); assay: Calcium flux assay using FLIPR, LPA3 antagonist activity; format: cell-based; conditions: for IC50: antagonist activity
T1 sequence (Q9UBY5 1-353): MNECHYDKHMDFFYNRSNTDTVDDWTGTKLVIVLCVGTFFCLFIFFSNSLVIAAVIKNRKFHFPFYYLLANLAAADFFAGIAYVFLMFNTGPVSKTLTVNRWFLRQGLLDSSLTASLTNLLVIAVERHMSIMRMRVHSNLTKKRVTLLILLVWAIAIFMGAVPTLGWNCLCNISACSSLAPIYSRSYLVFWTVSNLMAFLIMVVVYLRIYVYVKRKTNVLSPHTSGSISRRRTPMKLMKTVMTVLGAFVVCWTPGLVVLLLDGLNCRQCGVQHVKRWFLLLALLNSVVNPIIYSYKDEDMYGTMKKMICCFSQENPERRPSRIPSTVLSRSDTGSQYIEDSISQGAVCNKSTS
Experimental: as §1, §2
During the incubation, test compounds were prepared by adding 90 μL of HBSS/20 mM HEPES/0.1% BSA buffer to 2 μL of serially diluted compounds. To prepare serial dilutions, 10 mM stocks of compounds were prepared in 100% DMSO. The compound dilution plate was set up as follows: well #1 received 29 μL of stock compound and 31 μL DMSO; wells 2-10 received 40 μL of DMSO; mixed and transferred 20 μL of solution from well #1 into well #2; continued with 1:3 serial dilutions out 10 steps; transferred 2 μL of diluted compound into duplicate wells of 384 well “assay plate” and then added the 90 μL of buffer.
After incubation, both the cell and “assay” plates were brought to the FLIPR and 20 μL of the diluted compounds were transferred to the cell plates by the FLIPR. Compound addition was monitored by FLIPR to detect any agonist activity of the compounds. Plates were then incubated for 30 minutes at room temperature protected from light. After the incubation, plates were returned to the FLIPR and 20 μL of 4.5× concentrated agonist was added to the cell plates. During the assay, fluorescence readings were taken simultaneously from all 384 wells of the cell plate every 1.5 seconds. Five readings were taken to establish a stable baseline, then 20 μL of sample was rapidly (30 μL/sec) and simultaneously added to each well of the cell plate. The fluorescence was continuously monitored before, during and after sample addition for a total elapsed time of 100 seconds. Responses (increase in peak fluorescence) in each well following agonist addition was determined. The initial fluorescence reading from each well, prior to ligand stimulation, was used as zero baseline value for the data from that well. The responses were expressed as % inhibition of the buffer control.

Sequence of human recombinant LPA1 Lysophospholipid receptor (Q92633 whole entry): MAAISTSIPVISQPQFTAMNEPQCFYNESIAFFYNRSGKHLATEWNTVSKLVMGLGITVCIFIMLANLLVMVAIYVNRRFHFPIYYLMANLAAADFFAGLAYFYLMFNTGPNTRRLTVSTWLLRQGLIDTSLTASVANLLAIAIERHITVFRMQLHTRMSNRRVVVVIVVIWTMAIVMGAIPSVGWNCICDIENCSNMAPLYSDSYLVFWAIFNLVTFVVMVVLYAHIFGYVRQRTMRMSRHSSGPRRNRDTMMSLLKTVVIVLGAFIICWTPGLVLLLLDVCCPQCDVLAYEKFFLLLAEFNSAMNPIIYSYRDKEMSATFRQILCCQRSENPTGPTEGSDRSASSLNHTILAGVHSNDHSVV

| Compound | IC50 [1] | IC50 (LPA3) | inhibition at 30 µM (LPA3; @ 30 μM) | inhibition at 30 µM ([1]; @ 30 μM) |
| --- | --- | --- | --- | --- |
| Cc1nnn(-c2ccc(-c3ccc(C4(C(=O)O)CC4)cc3)cc2)c1NC(=O)O[C@H](C)c1ccccc1 [Example 1, 1-{4′-[4-Methyl-5-((R)-1-phenyl-ethoxycarbonylamino)-[1,2,3]triazol-1-yl]-biphenyl-4-yl}-cyclopropanecarboxylic acid] | 0.025 µM | > 30 µM | – | – |
| C[C@@H](OC(=O)Nc1cnnn1-c1ccc(-c2ccc(C3(C(=O)O)CC3)cc2)cc1)c1ccccc1 [Example 21, 1-{4′-[5-((R)-1-Phenyl-ethoxycarbonylamino)-[1,2,3]triazol-1-yl]-biphenyl-4-yl}-cyclopropanecarboxylic acid] | 0.036 µM | > 30 µM | 22% | – |
| CCc1nnn(-c2ccc(-c3ccc(C4(C(=O)O)CC4)cc3)cc2)c1NC(=O)O[C@H](C)c1cccc(C(F)(F)F)c1 [Example 19, 1-(4′-{4-Ethyl-5-[(R)-1-(3-trifluoromethyl-phenyl)-ethoxycarbonylamino]-[1,2,3]triazol-1-yl}-biphenyl-4-yl)-cyclopropanecarboxylic acid] | 0.412 µM | 4.82 µM | – | – |
| Cc1nnn(-c2ccc(-c3ccc(C4(C(=O)O)CC4)cc3)cc2)c1NC(=O)OC(C)C1CC1 (centres unmarked) [Example 12, 1-{4′-[5-(1-Cyclopropyl-ethoxycarbonylamino)-4-methyl-[1,2,3]triazol-1-yl]-biphenyl-4-yl}-cyclopropanecarboxylic acid] | 0.134 µM | > 30 µM | – | – |
| CCc1nnn(-c2ccc(-c3ccc(CC(=O)O)cc3)cc2)c1NC(=O)O[C@H](C)c1ccccc1 [Example 18, {4′-[4-Ethyl-5-((R)-1-phenyl-ethoxycarbonylamino)-[1,2,3]triazol-1-yl]-biphenyl-4-yl}-acetic acid] | 1.23 µM | > 30 µM | – | 79.8% |
| Cc1nnn(-c2ccc(-c3ccc(C4(C(=O)O)CC4)cc3)cc2)c1NC(=O)OC(C)C [Example 11, 1-[4′-(5-iso-Propoxycarbonylamino-4-methyl-[1,2,3]triazol-1-yl)-biphenyl-4-yl]-cyclopropanecarboxylic acid] | > 30 µM | > 30 µM | – | – |
| Cc1nnn(-c2cccc(-c3ccc(C4(C(=O)O)CC4)cc3)c2)c1NC(=O)O[C@H](C)c1ccccc1 [Example 25, 1-{3′-[4-Methyl-5-((R)-1-phenyl-ethoxycarbonylamino)-[1,2,3]triazol-1-yl]-biphenyl-4-yl}-cyclopropanecarboxylic acid] | > 30 µM | > 30 µM | – | – |
| Cc1nnn(-c2ccc(-c3cccc(C4(C(=O)O)CC4)c3)cc2)c1NC(=O)O[C@H](C)c1ccccc1 [Example 24, (R)-1-(4′-(4-Methyl-5-((1-phenylethoxy)carbonylamino)-1H-1,2,3-triazol-1-yl)biphenyl-3-yl)cyclopropanecarboxylic acid] | > 30 µM | > 30 µM | – | – |
| C[C@@H](OC(=O)Nc1cnnn1-c1ccc(-c2ccc(CC(=O)O)cc2)cc1)c1ccccc1 [Example 22, {4′-[5-((R)-1-Phenyl-ethoxycarbonylamino)-[1,2,3]triazol-1-yl]-biphenyl-4-yl}-acetic acid] | > 30 µM | > 30 µM | – | – |
| CC[C@@H](C)OC(=O)Nc1c(C)nnn1-c1ccc(-c2ccc(C3(C(=O)O)CC3)cc2)cc1 [Example 10, 1-{4′-[5-((R)-sec-Butoxycarbonylamino)-4-methyl-[1,2,3]triazol-1-yl]-biphenyl-4-yl}-cyclopropanecarboxylic acid] | 0.398 µM | > 30 µM | – | – |
| Cc1nnn(-c2ccc(-c3ccccc3)cc2)c1NC(=O)O[C@H](C)c1ccccc1 [Example 27, (3-Biphenyl-4-yl-5-methyl-3H-[1,2,3]triazol-4-yl)-carbamic acid (R)-1-phenyl-ethyl ester] | > 30 µM | > 30 µM | – | – |
| Cc1nnn(-c2ccc(-c3ccc(C4(C(=O)O)CC4)cc3)cc2)c1NC(=O)O[C@H](C)c1cccc(C(F)(F)F)c1 [Example 7, 1-(4′-{4-Methyl-5-[(R)-1-(3-trifluoromethyl-phenyl)-ethoxycarbonylamino]-[1,2,3]triazol-1-yl}-biphenyl-4-yl)-cyclopropanecarboxylic acid] | 0.174 µM | 6.86 µM | – | – |
| Cc1nnn(-c2ccc(-c3ccc(C#N)cc3)cc2)c1NC(=O)O[C@H](C)c1ccccc1 [Example 28, [3-(4′-Cyano-biphenyl-4-yl)-5-methyl-3H-[1,2,3]triazol-4-yl]-carbamic acid (R)-1-phenyl-ethyl ester] | > 30 µM | > 30 µM | – | – |
| C=CCC(C(=O)O)c1ccc(-c2ccc(-n3nnc(C)c3NC(=O)O[C@H](C)c3ccccc3)cc2)cc1 (stereo partly drawn) [Example 33, (R)-2-{4′-[4-Methyl-5-(-1-phenylethoxycarbonylamino)-[1,2,3]triazol-1-yl]-biphenyl-4-yl}-pent-4-enoic acid] | 0.088 µM | > 30 µM | – | – |
| Cc1nnn(-c2ccc(-c3ccc(C4(C(=O)O)CC4)cc3)cc2)c1NC(=O)OC(C)C1CCC1 (centres unmarked) [Example 13, 1-{4′-[5-(1-Cyclobutyl-ethoxycarbonylamino)-4-methyl-[1,2,3]triazol-1-yl]-biphenyl-4-yl}-cyclopropanecarboxylic acid] | 0.161 µM | > 30 µM | – | – |
